These results are taken from patent US20150164874A1, “PIRFENIDONE AND ANTI-FIBROTIC THERAPY IN SELECTED PATIENTS” (INTERMUNE, INC., priority 2011, published 2015).

The test system of assay [1] is IPF patients with mild to moderate impairment in lung function. The assay is described as follows: Phase 3 trials Study 1 and Study 2 of pirfenidone vs placebo in IPF patients, retrospective re-analysis (ITT vs novel selection criteria). Particulars: for 6MWT change from baseline, Relative Δ / % DLco change from baseline, Relative Δ / % FVC ≧10% decline, Relative Δ / Progression-free survival, time to event HR / SpO2 During 6MWT change from baseline, Relative Δ / Survival, time to event HR / UCSD SOBQ (dyspnea) change from baseline, Relative Δ / Worsening IPF, time to event HR: Study 1 and Study 2 pooled, pirfenidone vs placebo; for Interaction with Treatment: Group with Greater Pirfenidone Effect: multivariate model of FVC decline at 72 weeks. It counts as in vivo, human. The source says: Two multinational, randomized, double-blind, placebo-controlled Phase 3 trials, referred to herein as Study 1 and Study 2, were designed and performed to evaluate the safety and efficacy of pirfenidone in IPF patients with mild to moderate impairment in lung function. Both trials enrolled patients in North America, Europe and Australia with roughly 75% of the total 779 patients enrolled in North America.
Study 1 enrolled a total of 344 patients. Patients were randomized 1:1 to receive a total daily dose of 2403 mg pirfenidone, or placebo. Study 2 enrolled a total of 435 patients, and patients were randomized 2:2:1 to receive a total daily dose of 2403 mg pirfenidone, or placebo, or a total daily dose of 1197 mg pirfenidone, respectively. The total daily dose of pirfenidone was administered in three divided doses, three times per day.
If the surgical lung biopsy or HRCT scans were ambiguous, the slides or HRCT images were evaluated by an adjudicator for a second opinion.
Exclusion criteria included: FEV1/FVC<0.7 after bronchodilator administration, bronchodilator response, RV>120%, history of significant environmental exposure known to cause pulmonary fibrosis, and diagnosis of connective tissue disease or other known explanation of interstitial lung disease (ILD).
Enrollment of both trials was completed in less than 13 months following randomization of the first patient into the program in late April 2006. Ninety-seven percent (97%) of all patients in the two studies who were living and had not received a lung transplant, completed their Week 72 study visit.
The primary endpoint of both trials was change in percent predicted Forced Vital Capacity (FVC) after 72 weeks of treatment evaluated with a nonparametric rank ANCOVA analysis. The pre-specified secondary endpoints monitored during the studies included: (a) Time to worsening of IPF, defined as time to acute IPF exacerbation, IPF-related death, lung transplant or respiratory hospitalization, whichever comes first; (b) Progression-free survival defined as time to the first occurrence of either of the following (as compared to the patient's baseline): (1) 10% absolute decline in percent predicted FVC, or (2) 15% absolute decline in percent predicted Hb-corrected DL(CO), or (3) death (in the case of FVC or DL(CO), the decline must be confirmed at two consecutive visits at least 6 weeks apart); (c) Categorical assessment of absolute change from Baseline to Week 72 in percent predicted FVC; (d) Change from Baseline to Week 72 in dyspnea measured by the University of California at San Diego Shortness-of-Breath Questionnaire (UCSD SOBQ); (e) Change from Baseline to Week 72 in the percent predicted Hb-corrected DL(CO); (f) Change from Baseline to Week 72 in the worst oxygen saturation by pulse oximetry (SpO2) measurement observed during the Six-Minute Walk Test; (g) Change from Baseline to Week 72 in distance walked in the Six-Minute Walk Test (6MWT).
After the studies were completed, a retrospective multivariate model of data identified predictors of greater FVC decline at 72 weeks and variables that have a statistical interaction with pirfenidone treatment (i.e. the magnitude of the pirfenidone treatment effect is different at different levels of these variables).
Data from Study 1 and Study 2 were re-analyzed, selecting patients according to the following novel criteria instead of the original Intention To Treat (IIT) criteria:
(c) Time since IPF diagnosis >0.5 years and <48 months
Mean change in FVC in pirfenidone-treated vs. placebo-treated groups from Study 1 and Study 2, for the original patient population selected using the ITT criteria, is shown in FIG. 2A. When the patient population is instead selected using the novel criteria above, the mean change in FVC in pirfenidone-treated vs. placebo-treated groups for the patient is shown in FIG. 2B. Patients in both pirfenidone-treated and placebo-treated groups experienced a decline in mean % FVC from baseline. […]

Assay [2] has the same test system. The assay is described as follows: Phase 3 study of Actimmune in 826 IPF patients, retrospective analysis of FVC progression. Format: in vivo, human. Particulars: Phase 3 study 2003-2007. The source says:
FIGS. 1A-1D depicts a analysis of FVC progression from a clinical trial involving a different drug, interferon gamma-lb, which is inert with respect to effect on efficacy outcomes, in 826 patients with IPF, when the patients are segregated according to % FVC (FIG. 1A), % DLco (FIG. 1B), time since IPF diagnosis (FIG. 1C) and FEV1/FVC ratio (FIG. 1D).
In a prior trial involving 826 patients, data regarding progression of FVC was collected as part of a randomized, double-blind, placebo-controlled Phase 3 study conducted from 2003-2007 that was designed to evaluate the safety and efficacy of Actimmune(R) in IPF patients with mild to moderate impairment in lung function.

[3] abbreviates: Study 1 and Study 2, novel criteria, week 72.
The mark [4] stands for this setting: Study 1 and Study 2, original ITT criteria, week 48.
[5] abbreviates: Study 1 and Study 2, original ITT criteria, week 72.

On to `Cc1ccc(=O)n(-c2ccccc2)c1` [pirfenidone, 5-methyl-1-phenyl-2-(1H)-pyridone], for which, in assay [1] (Novel criteria, week 48), the “6MWT change from baseline, Relative Δ” value amounted to 64.2%; the “% DLco change from baseline, Relative Δ” value is listed as 36.9%; the “% FVC ≧10% decline, Relative Δ” value is recorded as 60.4%; the “Progression-free survival, time to event HR” value turned out to be 0.31. Also, in assay [1] (Novel criteria, week 48), the “SpO2 During 6MWT change from baseline, Relative Δ” value amounted to 62.3%; the “Survival, time to event HR” value is 0.16; the “UCSD SOBQ (dyspnea) change from baseline, Relative Δ” value is on record as −46.5%; the “Worsening IPF, time to event HR” value was 0.75. In addition, in assay [1] (Pooled ITT, week 48), the “6MWT change from baseline, Relative Δ” value was found to be 41%; the “% DLco change from baseline, Relative Δ” value worked out at 16%; the “% FVC ≧10% decline, Relative Δ” value stood at 39%; the “Progression-free survival, time to event HR” value is 0.53. Besides, in assay [1] (Pooled ITT, week 48), the “SpO2 During 6MWT change from baseline, Relative Δ” value worked out at 21%; the “Survival, time to event HR” value is reported as 0.42; the “UCSD SOBQ (dyspnea) change from baseline, Relative Δ” value is −29%; the “Worsening IPF, time to event HR” value stood at 0.80. In addition, in assay [1] (Study 1 and Study 2, novel criteria (% FVC 50%-90%, FEV1/FVC >0.80, time since diagnosis >0.5 years and <48 months), week 48), the “absolute difference in mean change from baseline % FVC between pirfenidone-treated and placebo-treated groups” value is listed as 6.1%. In addition, the “relative difference in mean change from baseline % FVC between pirfenidone-treated and placebo-treated groups” value in assay [1] (Study 1 and Study 2, novel criteria, week 48) is on record as 63.3%. In assay [1] (setting [3]), the “absolute difference in mean change from baseline % FVC between pirfenidone-treated and placebo-treated groups” value was 7.9%; the “relative difference in mean change from baseline % FVC between pirfenidone-treated and placebo-treated groups” value turned out to be 57.0%. In assay [1] (setting [4]), the “absolute difference in mean change from baseline % FVC between pirfenidone-treated and placebo-treated groups” value came to 3.3%; the “relative difference in mean change from baseline % FVC between pirfenidone-treated and placebo-treated groups” value was 41.6%. Besides, in assay [1] (setting [5]), the “absolute difference in mean change from baseline % FVC between pirfenidone-treated and placebo-treated groups” value came out at 2.5%; the “relative difference in mean change from baseline % FVC between pirfenidone-treated and placebo-treated groups” value was determined as 22.8%. Besides, the “Interaction with Treatment: Group with Greater Pirfenidone Effect” value in assay [1] (variable % FVC (90%), P-value 0.096) is reported as “FVC <90%”. Further, the “Interaction with Treatment: Group with Greater Pirfenidone Effect” value in assay [1] (variable Time since Diagnosis of IPF (0.5 yrs), P-value 0.043) is reported as “Time >0.5 years”.

B1: Actimmune: a different drug, interferon gamma-lb, inert with respect to effect on efficacy outcomes in IPF (protein, UniProt P01579 24-161, looked up)
Interferon gamma: QDPYVKEAENLKKYFNAGHSDVADNGTLFLGILKNWKEESDRKIMQSQIVSFYFKLFKNFKDDQSIQKSVETIKEDMNVKFFNSNKKKRDDFEKLTNYSVTDLNVQRKAIHELIQVMAELSPAAKTGKRKRSQMLFRG
B1: the “effect on FVC progression / efficacy outcomes” value in assay [2] was “does not have an effect on these outcomes”.
